Measured values from patent publication US12459914B2, “Compounds and compositions for the treatment of tumors” (FONDAZIONE ISTITUTO ITALIANO DI TECNOLOGIA, priority 2019, dated 2025).

Tests used:
BRC4/RAD51 interaction = target: T1, BRC4/RAD51 interaction (Homo sapiens, UniProt Q06609); assay: Competitive ELISA assay, disruption of BRC4/RAD51 interaction; type: binding; settings: human Rad51, biotinylated BRC4 peptide
T1 construct: purchased Creative Biomart (Rad51); Life Technologies (BRC4 peptide)
T1 sequence (Q06609 1-339): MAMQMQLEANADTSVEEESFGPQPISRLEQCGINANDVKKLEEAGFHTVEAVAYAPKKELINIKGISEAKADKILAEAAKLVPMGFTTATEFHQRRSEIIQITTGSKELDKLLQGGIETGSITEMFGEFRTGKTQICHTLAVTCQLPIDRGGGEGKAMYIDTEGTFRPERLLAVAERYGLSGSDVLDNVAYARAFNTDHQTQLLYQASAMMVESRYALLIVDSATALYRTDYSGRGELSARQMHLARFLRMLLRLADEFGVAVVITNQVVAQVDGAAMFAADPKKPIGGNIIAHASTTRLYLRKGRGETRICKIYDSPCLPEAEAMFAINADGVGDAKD
Summary of the method: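 Competitive ELISA: plates coated with biotinylated BRC4 peptide, blocked with 1% BSA/PBST, then hybridized overnight with human Rad51 protein. Compounds tested in triplicate dose-response, […], 1% DMSO. Bound Rad51 detected colorimetrically with anti-Rad51 antibody, HRP secondary and TMB quenched with HCl.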

BxPC-3 cells = assay: Cell viability assay (CellTiter Glo); type: cell-based; settings: Homo sapiens, 72 h
[1] = system: Homologous recombination (HR) in BxPC3 cells; assay: Homologous recombination assay (HR); type: cell-based; settings: Homo sapiens, BXPC-3, read-out: HR inhibition: IC50
Description: Homologous recombination (HR) was assessed by using a commercially available assay (Norgen). This assay is based on cell co-transfection with two plasmids that, upon cells entering, recombinate. The efficiency of HR can be assessed by real time PCR, using primer mixtures included in the assay kit. Different primer mixtures allow differentiation between the original plasmid backbones and their recombination product.
BxPC3 cells (2×10^3 per well) were seeded in a 24-well plate and allowed to adhere overnight. Co-transfection with the two plasmids was performed in Lipofectamine 2000 (Invitrogen) for 5 h, according to the manufacturer's instructions. During transfection cells were exposed at different doses of BRCA2-Rad51 disruptors, dissolved in RPMI without serum in the presence of 0.6% DMSO.
After washing with PBS, cells were harvested, and DNA was isolated using QIAamp® DNA Mini Kit (Qiagen). Sample concentration was measured using an ONDA Nano Genius photometer.
The thermal cycler (CFX96 ™ Real Time System, BioRad) was programmed as follows: initial denaturation 95° C. for 3 min then 95° C. for 15 sec., 61° C. for 30 sec., 72° C. for 1 min and repeated for 40 cycles. Melt curve analysis was done. Samples were run in triplicate, in 10 μl reaction volume containing 25 ng of template.
In each DNA sample from control and treated cultures, the ΔCt between the recombination product and the backbone plasmids was calculated. HR efficiency was evaluated from the 2^−ΔΔ^Ct value obtained by comparing treated vs control samples.

What does the source list for `CCC(=O)N1N=C(c2c(-c3ccccc3)c3cc(Cl)ccc3[nH]c2=O)CC1c1ccc(OC)cc1` (stereo not drawn) [d.12, 6-chloro-3-[3-(4-methoxyphenyl)-2-propanoyl-3,4-dihydropyrazol-5-yl]-4-phenyl-1H-quinolin-2-one]?
EC50 (BRC4/RAD51 interaction): 19 µM; EC50 (BxPC-3 cells): 19 µM; IC50 [1]: 18.4 µM
